Columns and labels:
Assay in all cases: relative viability (nuclei count vs DMSO), 5 days (fraction); higher = more cells survive
TPCA-1 + Pictilisib = compound: C1=CC(=CC=C1C2=CC(=C(S2)NC(=O)N)C(=O)N)F [TPCA-1] + CS(=O)(=O)N1CCN(Cc2cc3nc(-c4cccc5[nH]ncc45)nc(N4CCOCC4)c3s2)CC1 [Pictilisib] (partner 1 µM)
Procedure, shortened: (§1)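 Medians of duplicate plates are given as relative viability. That measure is the nuclei count in treated wells divided by the count in vehicle wells. Counts were taken on 4× images of lung cancer cell lines in 1536-well plates, 5 days after pin-tool dosing the day after seeding with one drug alone or a fixed anchor-drug dose plus five library-drug doses (not always all listed) in √10 steps.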

[1] = compound: C[C@]12O[C@H](C[C@]1(O)CO)n1c3ccccc3c3c4c(c5c6ccccc6n2c5c31)CNC4=O [Lestaurtinib] + CCNC(=O)c1noc(-c2cc(C(C)C)c(O)cc2O)c1-c1ccc(CN2CCOCC2)cc1 [Luminespib] (partner 0.01 µM)
Procedure, shortened: as §1

[2] = compound: C1/C(=C\C2=CC=CS2)/C(=O)/C(=C/C3=CC=CS3)/C1 + Cc1nc(Nc2ncc(C(=O)Nc3c(C)cccc3Cl)s2)cc(N2CCN(CCO)CC2)n1 [Dasatinib] (partner 0.075 µM)
Procedure, shortened: as §1

Lestaurtinib + Lapatinib = compound: C[C@]12O[C@H](C[C@]1(O)CO)n1c3ccccc3c3c4c(c5c6ccccc6n2c5c31)CNC4=O [Lestaurtinib] + CS(=O)(=O)CCNCc1ccc(-c2ccc3ncnc(Nc4ccc(OCc5cccc(F)c5)c(Cl)c4)c3c2)o1 [Lapatinib] (partner 2 µM)
Procedure, shortened: as §1

Cell Line	relative viability (TPCA-1 + Pictilisib; first compound 0.04 µM)	relative viability (TPCA-1 + Pictilisib; first compound 0.1265 µM)	relative viability (TPCA-1 + Pictilisib; first compound 0.4 µM)	relative viability (TPCA-1 + Pictilisib; first compound 1.265 µM)	relative viability (TPCA-1 + Pictilisib; first compound 4 µM)	relative viability ([1]; first compound 0.005 µM)	relative viability ([1]; first compound 0.01581 µM)	relative viability ([1]; first compound 0.05 µM)	relative viability ([1]; first compound 0.1581 µM)	relative viability ([1]; first compound 0.5 µM)	relative viability ([2]; first compound 0.2 µM)	relative viability ([2]; first compound 0.6325 µM)	relative viability ([2]; first compound 2 µM)	relative viability ([2]; first compound 6.325 µM)	relative viability ([2]; first compound 20 µM)	relative viability (Lestaurtinib + Lapatinib; first compound 0.005 µM)	relative viability (Lestaurtinib + Lapatinib; first compound 0.01581 µM)	relative viability (Lestaurtinib + Lapatinib; first compound 0.05 µM)	relative viability (Lestaurtinib + Lapatinib; first compound 0.1581 µM)	relative viability (Lestaurtinib + Lapatinib; first compound 0.5 µM)
NCI-H650	0.928	0.864	1.03	0.538	0.787	0.824	0.703	0.635	0.322	0.239	0.462	0.416	0.569	0.446	0.444	0.732	1.22	0.455	0.421	0.26
NCI-H358	0.309	0.272	0.349	0.335	0.236	0.446	0.325	0.378	0.149	0.121	0.155	0.178	0.18		0.164	0.466	0.423	0.374	0.268	0.279
BEN	0.663	0.449	0.516	0.789	0.441	0.249	0.298	0.278	0.326	0.213	0.325	0.38	0.316	0.35	0.298	0.743	0.959	0.586	0.408	0.255
SW 1573	0.54	0.419	0.506	0.505	0.495	0.218	0.236	0.182	0.315	0.131	0.564	0.516	0.475	0.429	0.449	1.33	1.16	1.02	0.767	0.738
SK-MES-1	0.403	0.316	0.305	0.255	0.276	0.714	0.619	0.391	0.229	0.261	0.337	0.421	0.366	0.391	0.425	0.529	0.453	0.374	0.324	0.285
NCI-H1755	0.406	0.344	0.426	0.209	0.204	0.41	0.42	0.453	0.211	0.204	0.393	0.462	0.445	0.366	0.375	1.01	1.1	0.907	0.39	0.232
NCI-H2023	0.264	0.177	0.237	0.176	0.115	0.848	0.983	0.48	0.524	0.119	0.597	0.581	0.673	0.513	0.502	0.987	0.753	0.503	0.22	0.0798
LC-2-ad	0.644	0.376	0.488	0.322	0.0862	1.1	1.21	0.799	0.617	0.372	0.667	0.59	0.655	0.482	0.626	1.17	1.07	0.62	0.266	0.19
NCI-H1666	0.419	0.35	0.412	0.561	0.404	1.05	1.14	1.46	0.959	0.609	0.833	0.847	0.811	0.786	0.875	0.732	1.2	0.51	0.556	0.277
201T	0.733	0.66	0.687	0.663	0.632	1.16	1.07	1.14	1.09	0.357	0.633	0.523	0.529	0.493	0.612	1.05	1.08	1.04	1.2	0.961
NCI-H2009	0.974	0.741	0.896	0.272	0.318	1.13	1.08	0.993	0.858	0.637	0.282	0.296	0.306	0.269	0.311	0.959	0.942	0.807	0.755	0.15
NCI-H1395	0.694	0.66	0.68	0.505	0.607	0.654	0.668	0.616	0.472	0.374	0.422	0.406	0.399	0.406	0.382	1.15	1.26	0.848	0.853	0.416
NCI-H2228	0.379	0.358	0.402	0.454	0.186	0.185	0.144	0.137	0.123	0.109	0.638	0.479	0.535	0.408	0.531	0.892	0.95	0.376	0.281	0.256
LU99A	0.299	0.29	0.317	0.303	0.25	0.235	0.245	0.221	0.249	0.185	0.611	0.539	0.714	0.623	0.554	0.839	0.627	0.446	0.38	0.213
NCI-H1437	0.508	0.439	0.423	0.538	0.29	1.21	1.26	1.06	1.16	0.962	0.408	0.446	0.561	0.412	0.378	0.775	0.866	0.529	0.414	0.114
EKVX	0.405	0.343	0.512	0.374	0.43	0.951	0.876	0.999	0.821	0.541	0.556	0.433	0.519		0.459	0.192	0.221	0.195	0.194	0.198
